# Patent publication US10842779B2, “Heterocyclic compounds and their use in preventing or treating bacterial infections” (priority 2015, dated 2020)
# Where two headings read alike, the source gives them in different places.
# Tests used:
# Test in all cases: MIC of compounds alone, broth microdilution
# Type in all cases: cell-based
# C. freundii = settings: Citrobacter freundii, alone, read-out: MIC
# Procedure: (§1) Method 2: MIC of Compounds and Synergy with Ceftazidime Against Bacterial Isolates (Table 2 and 3)
# (§2) Compounds of the present invention were assessed against genotyped bacterial strains alone or in combination with the β-lactam ceftazidime. In the assays, MICs of said compounds, or of ceftazidime at fixed concentrations of said compounds were determined by the broth microdilution method according to the Clinical Laboratory Standards Institute (CLSI—M7-A7). Briefly, compounds alone according to the invention were prepared in DMSO and spotted (2 μL each) on sterile polystyrene plates (Corning, 3788). Compounds and ceftazidime dilutions were prepared in DMSO and spotted (1 μL each) on sterile polystyrene plates (Corning, 3788). Log phase bacterial suspensions were adjusted to a final density of 5×10^5 cfu/mL in cation-adjusted Mueller-Hinton broth (Beckton-Dickinson) and added to each well (98 μL). Microplates were incubated for 16-20 h at 35° C. in ambient air. The MIC of the compounds was defined as the lowest concentration of said compounds that prevented bacterial growth as read by visual inspection. The MIC of ceftazidime at each compound concentration was defined as the lowest concentration of ceftazidime that prevented bacterial growth as read by visual inspection.
# C. murliniae = settings: alone; CMU 210102; beta-lactamases VIM-4; read-out: MIC
# Procedure: as §1, §2
# E. aerogenes = settings: Klebsiella aerogenes; alone; EAE 200261; beta-lactamases TEM-x AmpC; read-out: MIC
# Procedure: as §1, §2
# E. cloacae = settings: Enterobacter cloacae
# Procedure: as §1, §2
# E. coli = settings: Escherichia coli
# Procedure: as §1, §2
compound,measurement,setting,value
"O=C(O)C(F)(F)F.O=C1N2C[C@H](c3scnc3[C@H]2c2ncc[nH]2)N1OS(=O)(=O)[O-].[Na+] (relative stereo) [Example 1, Sodium and 2,2,2-trifluoroacetate [trans-7-(1H-imidazol-3-ium-2-yl)-9-oxo-3-thia-5,8,10-triaza-tricyclo[6.2.1.0^2,6]undeca-2(6),4-dien-10-yl]sulfate]",MIC,"C. freundii; CFR UFR10, beta-lactamases OXA-48",1 µg/mL
same,MIC,"C. freundii; CFR UFR11, beta-lactamases TEM-1 OXA-1 OXA-48",8 µg/mL
same,MIC,"C. freundii; CFR UFR37, beta-lactamases TEM-1, CTX-M-15 NDM-1",2 µg/mL
same,MIC,C. murliniae,4 µg/mL
same,MIC,E. aerogenes,8 µg/mL
same,MIC,"E. cloacae; ECL 2185D, beta-lactamases OXA-163, read-out: MIC",8 µg/mL
same,MIC,"E. cloacae; ECL 190310, beta-lactamases AmpC, read-out: MIC",4 µg/mL
same,MIC,"E. cloacae; ECL 190408, beta-lactamases TEM-1, CTX-M-15 OXA-1, read-out: MIC",0.5 µg/mL
same,MIC,"E. cloacae; ECL 200138, beta-lactamases AmpC, read-out: MIC",8 µg/mL
same,MIC,"E. cloacae; ECL 200322, beta-lactamases TEM-1, CTX-M-15 OXA-1, read-out: MIC",1 µg/mL
same,MIC,"E. cloacae; ECL 260033, beta-lactamases AmpC, read-out: MIC",8 µg/mL
same,MIC,"E. cloacae; ECL 260253, beta-lactamases TEM-1 KPC-3, read-out: MIC",8 µg/mL
same,MIC,"E. cloacae; ECL 260323, beta-lactamases AmpC, read-out: MIC",4 µg/mL
same,MIC,"E. cloacae; ECL 260508, beta-lactamases TEM-1, CTX-M-15, read-out: MIC",1 µg/mL
same,MIC,"E. cloacae; ECL HAN, beta-lactamases OXA-35, read-out: MIC",8 µg/mL
same,MIC,"E. cloacae; ECL NEM146383, beta-lactamases AmpC, read-out: MIC",2 µg/mL
same,MIC,"E. cloacae; ECL P99, beta-lactamases AmpC, read-out: MIC",4 µg/mL
same,MIC,"E. cloacae; ECL UFR12, beta-lactamases CTX-M-9 OXA-48, read-out: MIC",2 µg/mL
same,MIC,"E. cloacae; ECL UFR13, beta-lactamases TEM-1, SHV-12, CTX-M-9 OXA-48, read-out: MIC",2 µg/mL
same,MIC,"E. cloacae; ECL UFR14, beta-lactamases TEM-1, SHV-12, CTX-M-15 DHA-1 OXA-1 OXA-48, read-out: MIC",8 µg/mL
same,MIC,"E. cloacae; ECL UFR38, beta-lactamases CTX-M-15 NDM-1, read-out: MIC",1 µg/mL
same,MIC,"E. cloacae; ECL UFR51, beta-lactamases SHV-12 IMP-8, read-out: MIC",0.5 µg/mL
same,MIC,"E. cloacae; ECL UFR60, beta-lactamases TEM-1, CTX-M-15 KPC-2, read-out: MIC",8 µg/mL
same,MIC,"E. cloacae; ECL UFR70, beta-lactamases TEM-1, CTX-M-15 CMY-2 OXA-1, read-out: MIC",1 µg/mL
same,MIC,"E. cloacae; ECL UFR84, beta-lactamases TEM-1 AmpC OXA-1, read-out: MIC",8 µg/mL
same,MIC,"E. cloacae; ECL UFR85, beta-lactamases TEM-1, CTX-M-15 AmpC, read-out: MIC",2 µg/mL
same,MIC,"E. coli; ECO 180070, beta-lactamases TEM-1, CTX-M-15, read-out: MIC",1 µg/mL
same,MIC,"E. coli; ECO 190314, beta-lactamases CTX-M-1, read-out: MIC",0.5 µg/mL
same,MIC,"E. coli; ECO 190317, beta-lactamases TEM-1, SHV-12, CTX-M-15 OXA-1, read-out: MIC",1 µg/mL
same,MIC,"E. coli; ECO 190457, beta-lactamases CTX-M-15 OXA-1, read-out: MIC",1 µg/mL
same,MIC,"E. coli; ECO 190549, beta-lactamases CTX-M-1, read-out: MIC",0.25 µg/mL
same,MIC,"E. coli; ECO 200159, beta-lactamases TEM-1, CTX-M-14, read-out: MIC",0.25 µg/mL
same,MIC,"E. coli; ECO 200259, beta-lactamases CTX-M-14, read-out: MIC",0.5 µg/mL
same,MIC,"E. coli; ECO 200344, beta-lactamases CTX-M-1, read-out: MIC",0.5 µg/mL
same,MIC,"E. coli; ECO 260096, beta-lactamases CTX-M-132, read-out: MIC",4 µg/mL
same,MIC,"E. coli; ECO 260304, beta-lactamases CTX-M-15, read-out: MIC",1 µg/mL
same,MIC,"E. coli; ECO 260508, beta-lactamases TEM-1, CTX-M-15 OXA-1, read-out: MIC",2 µg/mL
same,MIC,"E. coli; ECO UFR16, beta-lactamases TEM-1, CTX-M-15 OXA-1 OXA-48, read-out: MIC",2 µg/mL
same,MIC,"E. coli; ECO UFR17, beta-lactamases TEM-1, CTX-M-15 CMY-2 OXA-1 OXA-181, read-out: MIC",4 µg/mL
same,MIC,"E. coli; ECO UFR18, beta-lactamases CTX-M-15 OXA-204, read-out: MIC",1 µg/mL
same,MIC,"E. coli; ECO UFR19, beta-lactamases CTX-M-15 CMY-2 OXA-1 OXA-204, read-out: MIC",1 µg/mL
same,MIC,"E. coli; ECO UFR32, beta-lactamases TEM-1, VEB-1 OXA-10, read-out: MIC",1 µg/mL
same,MIC,"E. coli; ECO UFR39, beta-lactamases CTX-M-15 NDM-1, read-out: MIC",2 µg/mL
same,MIC,"E. coli; ECO UFR41, beta-lactamases TEM-1, CTX-M-15 CMY-2 OXA-1 NDM-4, read-out: MIC",16 µg/mL
same,MIC,"E. coli; ECO UFR45, beta-lactamases TEM-1 CMY-4 OXA-1 OXA-48 VIM-1, read-out: MIC",0.5 µg/mL
